Source: patent US20050181376A1, “Antisense modulation of microsomal triglyceride transfer protein expression” (ISIS Pharmaceuticals, Inc., priority 2001, published 2005)
Strand notation (5' to 3'): a small letter for the sugar, then the base; units joined by * are phosphorothioate-linked, units joined directly phosphodiester-linked; [ ] holds rarer units or linkages, { } end groups; capitals alone tell only the bases. e = 2'-O-(2-methoxyethyl) (MOE); [5mC] = 5-methylcytosine; d = 2'-deoxy (DNA)

These substances were tested on human microsomal triglyceride transfer protein mRNA (assay: not given). Conditions: not given.
Further: test concentration or dose not given here.

For “GATGATTCAAAATGACGCTG (chemistry not given here) [ISIS 144444]”, the “% INHIB (inhibition of human microsomal triglyceride transfer protein mRNA levels)” value (from here on “% INHIB”) was “at least 30%”.

The substances below were run on human microsomal triglyceride transfer protein mRNA (assay: Antisense inhibition of human microsomal triglyceride transfer protein mRNA levels, quantitative real-time PCR). Conditions: averages from two experiments.

For “GATTCCTCCATAGTAAGGCC (antisense eG*eA*eT*eT*e[5mC]*d[5mC]*dT*d[5mC]*d[5mC]*dA*dT*dA*dG*dT*dA*eA*eG*eG*e[5mC]*e[5mC]) [ISIS 144413]”, the “% INHIB” value was “at least 30%”.
“GCTTCATCCTTGTCCATCTG (antisense eG*e[5mC]*eT*eT*e[5mC]*dA*dT*d[5mC]*d[5mC]*dT*dT*dG*dT*d[5mC]*d[5mC]*eA*eT*e[5mC]*eT*eG) [ISIS 144438]” was tested, and the “% INHIB” value was “at least 30%”.

Going from “144447 (eG*eA*eG*e[5mC]*eT*dT*d[5mC]*dA*dT*dA*dT*dA*d[5mC]*dA*dT*eT*eG*eA*eT*e[5mC]; antisense) [compound 144447]” to “144412 (eG*e[5mC]*eG*eG*eT*dA*dG*d[5mC]*d[5mC]*d[5mC]*dA*d[5mC]*dG*d[5mC]*dT*eG*eT*e[5mC]*eT*eT; antisense) [compound 144412]”, the “% INHIB” value falls from 70% to 34%.

First: 144440 (eA*eA*eT*eA*eT*d[5mC]*dA*d[5mC]*dA*dG*dG*dT*d[5mC]*dA*dG*eT*eT*eT*e[5mC]*eA; antisense) [compound 144440]
Second: 144411 (eA*e[5mC]*eG*eT*eG*dA*dG*d[5mC]*dT*dT*dG*dT*dA*d[5mC]*dA*eG*e[5mC]*e[5mC]*eG*eG; antisense) [compound 144411]
The “% INHIB” value of the first is higher: 40% for the first, 28% for the second.

Going from “144430 (e[5mC]*eT*eA*eT*eG*dT*dA*dG*d[5mC]*d[5mC]*dA*dG*dT*dG*dT*eA*eG*eG*e[5mC]*eA; antisense) [compound 144430]” to “144446 (eG*eA*eG*eA*eA*dT*dA*dA*d[5mC]*dT*dA*dT*dT*d[5mC]*dT*eG*eA*e[5mC]*eT*eG; antisense) [compound 144446]”, the “% INHIB” value rises from 0% to 28%.

Compared with “144443 (eG*eT*eA*eG*e[5mC]*dA*dT*dA*d[5mC]*dT*dG*d[5mC]*dA*dT*dA*eT*eA*e[5mC]*e[5mC]*e[5mC]; antisense) [compound 144443]”, “144442 (e[5mC]*eG*e[5mC]*eT*eG*dT*dG*d[5mC]*dT*d[5mC]*dT*d[5mC]*dA*dG*dA*eG*eA*eG*e[5mC]*eA; antisense) [compound 144442]” is higher in “% INHIB” value: 51% for the first, 57% for the second.

Going from “144438 (eG*e[5mC]*eT*eT*e[5mC]*dA*dT*d[5mC]*d[5mC]*dT*dT*dG*dT*d[5mC]*d[5mC]*eA*eT*e[5mC]*eT*eG; antisense) [compound 144438]” to “144416 (eA*eG*eG*eT*eG*dG*dT*dG*dA*d[5mC]*dA*dG*dA*dT*dG*eT*eA*eG*e[5mC]*eT; antisense) [compound 144416]”, the “% INHIB” value falls from 53% to 27%.
